Where two headings read alike, the source gives them in different places.
Tests used:
[1] = molecular target: T1, hSCN3A (Homo sapiens, UniProt Q9NY46); assay: Whole-cell patch-clamp electrophysiology (conventional or PatchXpress), HEK cells expressing hSCN3A, estimated IC-50; type: cell-based; conditions: read-out: SCN3A EIC-50
T1 construct: expressed in transfected cells
Procedure: Human Embryonic Kidney (HEK) cells were transfected with hSCN3A or hSCN9A constructs using lipofectamine reagent (Invitrogen), using standard techniques. Cells stably expressing the hSCN3A or hSCN9A constructs were identified by their resistance to G-418 (400 μg/ml). Clones were screened for expression using the whole-cell voltage-clamp technique. HEK cells stably transfected with hSCN3A or hSCN9A were maintained in DMEM medium supplemented with 10% heat-inactivated fetal bovine serum and 400 μg/ml G418 sulfate in an incubator at 37° C. with a humidified atmosphere of 10% CO2. For HTS, cells were harvested from flasks by trypsinization and replated in an appropriate multi-well plate (typically 96 or 384 wells/plate) such that confluence would be achieved within 24 hours of plating. For electrophysiological studies, cells were removed from the culture flask by brief trypsinization and replated at low density onto glass cover slips. Cells were typically used for electrophysiological experiments within 24 to 72 h after plating. Cover slips containing HEK cells expressing hSCN3A or hSCN9A were placed in a bath on the stage of an inverted microscope and perfused (approximately 1 ml/min) with extracellular solution of the following composition: 138 mM NaCl, 2 mM CaCl2, 5.4 mM KCl, 1 mM MgCl2, 10 mM glucose, and 10 mM HEPES, pH 7.4, with NaOH. […] All recordings were made at room temperature (22-24° C.) using AXOPATCH 200B amplifiers and PCLAMP software (Axon Instruments, Burlingame, Calif.) or PatchXpress 7000 hardware and associated software (Axon Instruments, Burlingame, Calif.). hSCN3A or hSCN9A currents in HEK cells were measured using the whole-cell configuration of the patch-clamp technique (Hamill et al., 1981). […] As a result, voltage errors were negligible and no correction was applied. Current records were acquired at 20 to 50 KHz and filtered at 5 to 10 KHz. HEK cells stably transfected with hSCN3A or hSCN9A were viewed under Hoffman contrast optics and placed in front of an array of flow pipes emitting either control or compound-containing extracellular solutions. All compounds were dissolved in dimethyl sulfoxide to make 10 mM stock solutions, which were then diluted into extracellular solution to attain the final concentrations desired. […] The voltage-dependence of inactivation was determined by applying a series of depolarizing prepulses (8 sec long in 10 mV increments) from a negative holding potential. The voltage was then immediately stepped to 0 mV to assess the magnitude of the sodium current. Currents elicited at 0 mV were plotted as a function of prepulse potential to allow estimation of the voltage midpoint of inactivation (V1/2). Cells were then voltage clamped at the empirically determined V1/2. Compounds were tested for their ability to inhibit hSCN3A or hSCN9A sodium channels by activating the channel with a 20 msec voltage step to 0 mV following an 8 second conditioning prepulse to the empirically determined V1-2 (Table B). Compound effect (% inhibition) was determined by difference in current amplitude before and after application of test compounds. […] In some cases electrophysiological assays were conducted with PatchXpress 7000 hardware and associated software (Molecular Devices Corp) (Table B). All assay buffers and solutions were identical to those used in conventional whole-cell voltage clamp experiments described above. hSCN3A or hSCN9A containing cells were grown as above to 50%-80% confluency and harvested by trypsinization. Trypsinized cells were washed and resuspended in extracellular buffer at a concentration of 1×10^6 cells/ml. The onboard liquid handling facility of the PatchXpress was used for dispensing cells and application of test compounds. Determination of the voltage midpoint of inactivation was as described for conventional whole-cell recordings. Cells were then voltage-clamped to the empirically determined V1/2 and current was activated by a 20 msec voltage step to 0 mV.

[2] = molecular target: T2, hSCN9A (Homo sapiens, UniProt Q15858); assay: Whole-cell patch-clamp electrophysiology (conventional or PatchXpress), HEK cells expressing hSCN9A, estimated IC-50; type: cell-based; conditions: read-out: SCN9A EIC-50
T2 construct: expressed in transfected cells
In short: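 Stably transfected HEK cells recorded by whole-cell voltage clamp (manual or PatchXpress) at 22–24 °C in pH 7.4 HEPES-buffered extracellular solution. Cells held at the empirically determined inactivation V1/2 after an 8 s prepulse, then stepped to 0 mV for 20 ms; % inhibition from current amplitude before vs after compound.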

[3] = estimated IC-50, HEK cells expressing hSCN3A, class symbols or bounds
[4] = estimated IC-50, HEK cells expressing hSCN9A, class symbols or bounds
[5] = Table V, estimated IC-50 from single point electrophysiology, cells clamped at V1/2
[6] = commercial compounds (second Table VI), estimated IC-50 from single point electrophysiology

T1 sequence (Q9NY46 whole entry): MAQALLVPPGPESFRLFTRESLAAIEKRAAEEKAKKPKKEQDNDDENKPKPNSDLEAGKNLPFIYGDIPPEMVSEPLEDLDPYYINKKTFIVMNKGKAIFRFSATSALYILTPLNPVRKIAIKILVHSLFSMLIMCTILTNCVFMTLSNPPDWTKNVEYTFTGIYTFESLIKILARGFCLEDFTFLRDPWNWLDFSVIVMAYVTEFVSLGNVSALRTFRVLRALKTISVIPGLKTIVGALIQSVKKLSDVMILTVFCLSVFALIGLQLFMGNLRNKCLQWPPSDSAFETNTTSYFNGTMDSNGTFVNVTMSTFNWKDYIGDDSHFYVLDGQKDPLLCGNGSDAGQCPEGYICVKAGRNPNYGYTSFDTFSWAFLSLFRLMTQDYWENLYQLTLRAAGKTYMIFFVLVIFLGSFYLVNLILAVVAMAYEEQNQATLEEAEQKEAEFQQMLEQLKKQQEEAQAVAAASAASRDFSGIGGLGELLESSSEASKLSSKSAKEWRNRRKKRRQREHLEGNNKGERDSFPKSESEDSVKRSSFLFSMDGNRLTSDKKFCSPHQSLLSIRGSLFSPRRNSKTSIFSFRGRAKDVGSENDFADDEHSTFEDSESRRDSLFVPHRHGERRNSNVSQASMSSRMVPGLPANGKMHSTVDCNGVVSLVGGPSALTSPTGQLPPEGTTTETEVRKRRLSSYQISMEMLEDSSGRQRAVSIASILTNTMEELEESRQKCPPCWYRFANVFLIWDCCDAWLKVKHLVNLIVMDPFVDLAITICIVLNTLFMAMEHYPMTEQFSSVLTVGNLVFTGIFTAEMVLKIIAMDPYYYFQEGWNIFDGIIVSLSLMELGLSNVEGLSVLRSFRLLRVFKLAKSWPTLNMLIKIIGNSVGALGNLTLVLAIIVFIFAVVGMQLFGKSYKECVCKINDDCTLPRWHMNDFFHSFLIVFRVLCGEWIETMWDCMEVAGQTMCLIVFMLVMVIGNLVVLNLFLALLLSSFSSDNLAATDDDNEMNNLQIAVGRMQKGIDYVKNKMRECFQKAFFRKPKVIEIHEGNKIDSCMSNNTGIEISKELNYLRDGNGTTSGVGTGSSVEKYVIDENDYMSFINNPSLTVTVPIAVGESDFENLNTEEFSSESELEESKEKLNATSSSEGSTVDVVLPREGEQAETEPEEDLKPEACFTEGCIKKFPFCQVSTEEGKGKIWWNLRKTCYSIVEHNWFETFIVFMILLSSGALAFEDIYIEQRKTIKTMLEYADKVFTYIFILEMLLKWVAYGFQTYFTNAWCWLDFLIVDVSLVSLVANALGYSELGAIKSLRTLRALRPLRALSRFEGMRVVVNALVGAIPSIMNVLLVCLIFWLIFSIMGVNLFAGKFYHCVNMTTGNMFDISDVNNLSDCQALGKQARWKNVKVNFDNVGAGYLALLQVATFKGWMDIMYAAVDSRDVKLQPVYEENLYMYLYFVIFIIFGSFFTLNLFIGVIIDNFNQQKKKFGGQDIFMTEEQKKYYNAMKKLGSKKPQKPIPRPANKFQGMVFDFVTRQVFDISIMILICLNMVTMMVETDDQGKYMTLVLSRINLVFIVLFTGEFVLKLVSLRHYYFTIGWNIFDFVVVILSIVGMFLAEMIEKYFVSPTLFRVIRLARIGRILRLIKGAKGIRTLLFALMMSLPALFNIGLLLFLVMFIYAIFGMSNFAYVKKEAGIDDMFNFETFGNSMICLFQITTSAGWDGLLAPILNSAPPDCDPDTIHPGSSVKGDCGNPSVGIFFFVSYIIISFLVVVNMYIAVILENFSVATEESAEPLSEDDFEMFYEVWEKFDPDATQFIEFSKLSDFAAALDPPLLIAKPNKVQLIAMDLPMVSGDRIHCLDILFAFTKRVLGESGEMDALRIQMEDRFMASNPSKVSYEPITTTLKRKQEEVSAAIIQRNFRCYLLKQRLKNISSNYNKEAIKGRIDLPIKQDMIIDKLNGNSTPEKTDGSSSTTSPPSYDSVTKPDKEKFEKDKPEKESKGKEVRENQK
T2 sequence (Q15858 whole entry): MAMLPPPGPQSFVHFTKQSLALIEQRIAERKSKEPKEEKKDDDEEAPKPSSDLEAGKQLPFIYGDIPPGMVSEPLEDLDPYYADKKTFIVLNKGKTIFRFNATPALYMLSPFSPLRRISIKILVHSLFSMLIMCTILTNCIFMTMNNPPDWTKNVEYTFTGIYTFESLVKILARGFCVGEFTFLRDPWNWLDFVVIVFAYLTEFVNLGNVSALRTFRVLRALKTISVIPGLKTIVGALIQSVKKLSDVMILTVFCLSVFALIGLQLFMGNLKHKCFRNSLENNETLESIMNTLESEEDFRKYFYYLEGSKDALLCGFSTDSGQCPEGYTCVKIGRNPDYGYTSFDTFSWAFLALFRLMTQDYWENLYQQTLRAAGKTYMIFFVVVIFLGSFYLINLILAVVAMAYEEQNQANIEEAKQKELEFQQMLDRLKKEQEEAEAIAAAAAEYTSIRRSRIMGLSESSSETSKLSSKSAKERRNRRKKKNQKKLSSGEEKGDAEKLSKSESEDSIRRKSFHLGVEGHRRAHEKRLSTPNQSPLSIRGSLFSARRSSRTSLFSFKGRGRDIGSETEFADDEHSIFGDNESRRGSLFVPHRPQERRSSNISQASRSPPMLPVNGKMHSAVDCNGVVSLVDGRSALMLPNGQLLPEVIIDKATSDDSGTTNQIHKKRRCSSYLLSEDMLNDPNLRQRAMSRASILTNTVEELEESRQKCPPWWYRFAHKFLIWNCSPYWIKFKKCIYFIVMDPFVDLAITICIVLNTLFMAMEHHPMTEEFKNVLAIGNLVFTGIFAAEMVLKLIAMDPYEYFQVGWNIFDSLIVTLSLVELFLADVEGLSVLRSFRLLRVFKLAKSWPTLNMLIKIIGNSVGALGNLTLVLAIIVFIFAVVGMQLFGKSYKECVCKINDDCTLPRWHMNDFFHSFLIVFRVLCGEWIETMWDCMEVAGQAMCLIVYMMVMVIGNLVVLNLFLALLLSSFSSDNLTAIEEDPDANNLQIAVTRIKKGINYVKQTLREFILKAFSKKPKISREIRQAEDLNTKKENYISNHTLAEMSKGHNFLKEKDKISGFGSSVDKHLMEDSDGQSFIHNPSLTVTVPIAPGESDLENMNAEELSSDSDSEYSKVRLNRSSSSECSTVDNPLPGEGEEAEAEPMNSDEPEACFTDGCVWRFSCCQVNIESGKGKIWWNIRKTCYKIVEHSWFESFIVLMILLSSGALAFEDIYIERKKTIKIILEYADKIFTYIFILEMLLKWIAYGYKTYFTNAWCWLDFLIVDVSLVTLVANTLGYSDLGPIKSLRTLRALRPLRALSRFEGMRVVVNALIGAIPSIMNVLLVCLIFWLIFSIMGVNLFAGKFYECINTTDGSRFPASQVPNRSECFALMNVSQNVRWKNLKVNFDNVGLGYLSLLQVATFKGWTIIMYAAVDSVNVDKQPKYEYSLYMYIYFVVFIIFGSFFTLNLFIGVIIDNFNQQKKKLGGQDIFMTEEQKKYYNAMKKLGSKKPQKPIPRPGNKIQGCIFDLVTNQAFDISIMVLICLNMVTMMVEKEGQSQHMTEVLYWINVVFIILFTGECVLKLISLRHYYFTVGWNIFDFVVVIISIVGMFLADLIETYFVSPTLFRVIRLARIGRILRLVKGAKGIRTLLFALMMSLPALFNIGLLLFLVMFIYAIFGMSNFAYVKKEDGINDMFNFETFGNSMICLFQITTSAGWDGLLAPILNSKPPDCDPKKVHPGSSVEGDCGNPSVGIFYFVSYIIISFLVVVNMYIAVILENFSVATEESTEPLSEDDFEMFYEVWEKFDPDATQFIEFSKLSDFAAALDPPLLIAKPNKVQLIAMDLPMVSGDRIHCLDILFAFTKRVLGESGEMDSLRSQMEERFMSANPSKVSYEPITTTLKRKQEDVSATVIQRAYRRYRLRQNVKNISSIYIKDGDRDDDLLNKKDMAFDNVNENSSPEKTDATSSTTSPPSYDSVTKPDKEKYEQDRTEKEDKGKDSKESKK

SMILES | IC50 [1, 3] [nM] | IC50 [2, 4] [nM] | other results
O=S(=O)(Nc1nccs1)c1ccc(Nc2nc(CNCc3ccc(Cl)cc3)cs2)cc1 [Compound 65, 4-(4-((4-chlorobenzylamino)methyl)thiazol-2-ylamino)-N-(thiazol-2-yl)benzenesulfonamide] | < 2000 | < 2000 | 
CN(Cc1csc(Nc2ccc(S(=O)(=O)Nc3nccs3)cc2)n1)C(c1ccccc1)c1ccccc1 [Compound 70, 4-(4-((benzhydryl(methyl)amino)methyl)thiazol-2-ylamino)-N-(thiazol-2-yl)benzenesulfonamide] | < 2000 | > 1000 | 
O=S(=O)(Nc1nccs1)c1ccc(Nc2ccccc2-c2ccccc2)cc1F [Compound 37, 4-(Biphenyl-2-ylamino)-2-fluoro-N-thiazol-2-yl-benzenesulfonamide] |  |  | IC50 [1, 5]: < 2000 nM; IC50 [2, 5]: < 2000 nM
O=S(=O)(Nc1nccs1)c1ccc(Nc2ncccn2)cc1 [Compound 44, 4-(pyrimidin-2-ylamino)-N-(thiazol-2-yl)benzenesulfonamide] | > 1000 | > 3000 | 
CN(CCc1ccncc1)Cc1csc(Nc2ccc(S(=O)(=O)Nc3nccs3)cc2)n1 [Compound 75, 4-(4-((methyl(2-(pyridin-4-yl)ethyl)amino)methyl)thiazol-2-ylamino)-N-(thiazol-2-yl)benzenesulfonamide] | < 2000 | > 1000 | 
CC(C)(C)c1cc(Nc2ccc(S(=O)(=O)Nc3nccs3)cc2)n(C(C)(C)C)n1 [Compound 22, 4-(1,3-di-tert-butyl-1H-pyrazol-5-ylamino)-N-(thiazol-2-yl)benzenesulfonamide] |  |  | IC50 [1, 5]: 2000 to 10000 nM; IC50 [2, 5]: 2000 to 10000 nM
COc1ccc(CNCc2csc(Nc3ccc(S(=O)(=O)Nc4nccs4)cc3)n2)c(OC)c1 [Compound 76, 4-(4-((2,4-dimethoxybenzylamino)methyl)thiazol-2-ylamino)-N-(thiazol-2-yl)benzenesulfonamide] | 2000 to 10000 | 2000 to 10000 | 
O=S(=O)(Nc1nccs1)c1ccc(Nc2nc(CNC(c3ccccc3)c3ccccc3)cs2)cc1 [Compound 60, 4-(4-((benzhydrylamino)methyl)thiazol-2-ylamino)-N-(thiazol-2-yl)benzenesulfonamide] | < 2000 | 2000 to 10000 | 
Cc1ccc(-c2nnc(Nc3ccc(S(=O)(=O)Nc4nccs4)cc3)c3ccccc23)cc1 [Compound 41, N-(thiazol-2-yl)-4-(4-p-tolylphthalazin-1-ylamino)benzenesulfonamide, reference compound] |  |  | IC50 [1, 6]: 1610 nM; IC50 [2, 6]: > 3000 nM
O=S(=O)(Nc1nccs1)c1ccc(Nc2nc(COc3ccccc3)cs2)cc1 [Compound 48, 4-(4-(phenoxymethyl)thiazol-2-ylamino)-N-(thiazol-2-yl)benzenesulfonamide] | < 2000 | > 1000 | 
N#Cc1ccc(Cc2csc(Nc3ccc(S(=O)(=O)Nc4nccs4)c(F)c3)n2)cc1 [Compound 5, 4-[4-(4-Cyano-benzyl)-thiazol-2-ylamino]-2-fluoro-N-thiazol-2-yl-benzenesulfonamide] |  |  | IC50 [1, 5]: < 2000 nM; IC50 [2, 5]: 2000 to 10000 nM
CCOC(=O)C1(C)C=C(Nc2ccc(S(=O)(=O)Nc3nccs3)cc2)C(=O)N1c1ccccc1 (stereo not drawn) [Compound 38, ethyl 2-methyl-5-oxo-1-phenyl-4-(4-(N-thiazol-2-ylsulfamoyl)phenylamino)-2,5-dihydro-1H-pyrrole-2-carboxylate, reference compound] |  |  | IC50 [1, 6]: > 1000 nM; IC50 [2, 6]: > 3000 nM
O=S(=O)(Nc1nccs1)c1ccc(Nc2nc(-c3ccccc3)cs2)cc1 [Compound 43, 4-(4-phenylthiazol-2-ylamino)-N-(thiazol-2-yl)benzenesulfonamide] | > 1000 | 2000 to 10000 | 
O=S(=O)(Nc1nccs1)c1ccc(Nc2cnn(CC(F)(F)F)c2)cc1F [Compound 130, 2-fluoro-N-(thiazol-2-yl)-4-(1-(2,2,2-trifluoroethyl)-1H-pyrazol-4-ylamino)benzenesulfonamide] | < 2000 | 2000 to 10000 | 
O=S(=O)(Nc1nccs1)c1ccc(Nc2ccn(Cc3ccc(Cl)cc3)n2)cn1 [Compound 235, 5-(1-(4-chlorobenzyl)-1H-pyrazol-3-ylamino)-N-(thiazol-2-yl)pyridine-2-sulfonamide] | < 2000 | 2000 to 10000 | 
O=S(=O)(Nc1nccs1)c1ccc(Nc2nc(CNCC(c3ccccc3)c3ccccc3)cs2)cc1 [Compound 56, 4-(4-((2,2-diphenylethylamino)methyl)thiazol-2-ylamino)-N-(thiazol-2-yl)benzenesulfonamide] | < 2000 | < 2000 | 
Cc1cc(Nc2ccc(S(=O)(=O)Nc3nccs3)c(F)c2)n(-c2ccccc2)n1 [Compound 30, 2-fluoro-4-(3-methyl-1-phenyl-1H-pyrazol-5-ylamino)-N-(thiazol-2-yl)benzenesulfonamide] |  |  | IC50 [1, 5]: < 2000 nM; IC50 [2, 5]: < 2000 nM
O=S(=O)(Nc1nccs1)c1ccc(Nc2nc(CSc3ccc(F)cc3)cs2)cc1 [Compound 82, 4-(4-((4-fluorophenylthio)methyl)thiazol-2-ylamino)-N-(thiazol-2-yl)benzenesulfonamide] | < 2000 | < 2000 | 
O=S(=O)(Nc1nccs1)c1ccc(Nc2ccn(Cc3ccc(Cl)cc3)n2)c(F)c1 [Compound 184, 4-(1-(4-chlorobenzyl)-1H-pyrazol-3-ylamino)-3-fluoro-N-(thiazol-2-yl)benzenesulfonamide] | < 2000 | < 2000 | 
O=S(=O)(Nc1nccs1)c1ccc(Nc2nc(CNC3CCCCCC3)cs2)cc1 [Compound 74, 4-(4-((cycloheptylamino)methyl)thiazol-2-ylamino)-N-(thiazol-2-yl)benzenesulfonamide] | 2000 to 10000 | 2000 to 10000 | 
Cc1cc(Nc2ccc(S(=O)(=O)Nc3nccs3)c(F)c2)n(-c2cccc(Cl)c2)n1 [Compound 152, 4-(1-(3-chlorophenyl)-3-methyl-1H-pyrazol-5-ylamino)-2-fluoro-N-(thiazol-2-yl)benzenesulfonamide] | < 2000 | < 2000 | 
CC(C)(C)n1nc(Cc2ccc(Cl)cc2)cc1Nc1ccc(S(=O)(=O)Nc2nncs2)cc1 [Compound 111, 4-(1-tert-butyl-3-(4-chlorobenzyl)-1H-pyrazol-5-ylamino)-N-(1,3,4-thiadiazol-2-yl)benzenesulfonamide] | < 2000 | 2000 to 10000 | 
O=S(=O)(Nc1nccs1)c1ccc(Nc2ccn(Cc3ccc(Cl)cc3)n2)cc1OC(F)(F)F [Compound 266, 4-(1-(4-chlorobenzyl)-1H-pyrazol-3-ylamino)-N-(thiazol-2-yl)-2-(trifluoromethoxy)benzenesulfonamide] | 2000 to 10000 | > 1000 | 
O=S(=O)(Nc1nccs1)c1ccc(Nc2cc(C3CC3)nn2-c2ccccc2)c(F)c1 [Compound 36, 4-(3-cyclopropyl-1-phenyl-1H-pyrazol-5-ylamino)-3-fluoro-N-(thiazol-2-yl)benzenesulfonamide] |  |  | IC50 [1, 5]: < 2000 nM; IC50 [2, 5]: < 2000 nM

Source: patent US8124610B2, “Sodium channel inhibitors” (Icagen Inc., priority 2007, dated 2012)
